Experimental data reported in patent US10106540B2, “HDAC6 inhibitors and their uses” (Universität Regensburg, priority 2014, dated 2018).

How the values were obtained:
HCT-116 cells = experiment: Western blot analysis in HCT-116 colon cancer cells; format: cell-based, human; conditions: HCT-116 cells, 24 h
Method: FIG. 5. Various cancer cells were treated for 24 h as shown and tested by Western blot analysis. […] Human colon cancer cell lines RKO (ATCC Accession No: CRL-2577) and HCT-116 (DSMZ Accession No: ACC-581). Western Blot Analysis a […] Protein lysate ([…]) was boiled in Laemmli buffer and separated on SDS-polyacrylamide gel electrophoresis for western blotting with specific antibodies. All lysates were assessed by Bradford assay for protein concentrations.

HEL leukemic cells = experiment: Western blot analysis in HEL leukemic cells (JAK2 V617F); format: cell-based, human; conditions: for concentration with about the same potency in hyperacetylation of tubulin-α: 24 h, Western blot
Method: Human leukemia cell line HEL with JAK2 V617F mutation (DSMZ Accession No: ACC-11).
(§1) The assay is carried out as described in Buchwald et al. 2010 and Buchwald et al. 2013. Briefly, cells were collected and lysed in NET-N buffer (150 mM NaCl, 1 mM EDTA, 50 mM Tris-HCl (pH 7.8), 0.5% Nonidet P-40 (NP-40), 1 mM phenylmethylsulfonyl fluoride, 0.5 mg/ml leupeptin and 0.5 mg/ml pepstatin) followed by mild sonification on ice. Protein lysate ([…]) was boiled in Laemmli buffer and separated on SDS-polyacrylamide gel electrophoresis for western blotting with specific antibodies. All lysates were assessed by Bradford assay for protein concentrations.

PRXF LNCaP = experiment: In vitro activity against solid tumor cell lines (FACS analysis method a); format: cell-based; conditions: Homo sapiens, Prostate
Method: (§2) Human prostate cancer cell lines PRXF DU-145, PRXF LNCaP, PRXF PC-3M (Oncotest GmbH, Freiburg, Germany)
(§3) The assay is carried out as described in Pietschmann et al., 2012 and Brandl et al. 2012. Briefly, 10^5 cells were fixed in 1 ml 70% EtOH with 0.05% Tween-20 overnight at 4° C. The following day, cells were washed with 3 ml 38 mM sodium citrate, pH 7.4, and incubated for 20 min at 37° C. in 0.5 ml 38 mM sodium citrate, pH 7.4, supplemented with 50 μg/ml propidium iodide and 10 μg/ml RNase-A. DNA contents of the cells were measured by fluorescence-activated cell sorter (FACS). This method allows detection of the apoptotic subG1-fraction, which has a DNA content below 2n due to apoptotic cleavage of DNA. Equally, the cell cycle profile can be assessed with this method.
(§4) The novel HDAC6 inhibitors were tested in a panel of tumor cell lines for cytostatic/toxic activities (see Table 2).

PRXF PC-3M = experiment: as above; format: cell-based; conditions: Homo sapiens, Prostate
Method: as §2, §3, §4

PRXF DU-145 = experiment: as above; format: cell-based; conditions: Homo sapiens, Prostate
Method: as §2, §3, §4

[1] = test system: 42 solid tumor cell lines; experiment: In vitro activity against solid tumor cell lines, mean of all lines; format: cell-based; conditions: average IC50 value from all 42 measurements
BV-173 cells [2] = experiment: Flow cytometric analysis of BV-173 cells, combination with imatinib; format: cell-based, human; conditions: BV-173, 1 μM MARB1 or 2 μM MARB2 combined with 0.2 or 0.5 μM imatinib, 48 h
Method: (§5) Flow cytometric analysis of the induction of (A) apoptotic DNA fragmentation and (B) Cell cycle analysis of BV 173 cells. The cells were kept as control cells (Ctl), treated with 1 μM or 2 μM MARB1 MARB2 and 0.2 or 0.5 μM imatinib for 48 h. The data was received by two independent experiments. The individual compounds show only slight effects in the used concentrations; whereas their combination can effectively kill leukemic cells. (C) Western blot analysis on data from the BCR-ABL, acetylated tubulin and α-sliced PARP1; the total amount of tubulin-α serves as a loading control. BV-173 cells were treated for 24 h with 1 μM, or 2 μM MARB1 or MARB2.
(§6) Human leukemia cell lines BV 173 and K562 with BCR-ABL mutation (Leibniz Institute DSMZ—German Collection of Microorganisms and Cell Cultures, DSMZ Accession Nos: ACC-20 and ACC-10).
The assay is carried out as described in Pietschmann et al., 2012 and Brandl et al. 2012. Briefly, 10^5 cells were fixed in 1 ml 70% EtOH with 0.05% Tween-20 overnight at 4° C. The following day, cells were washed with 3 ml 38 mM sodium citrate, pH 7.4, and incubated for 20 min at 37° C. in 0.5 ml 38 mM sodium citrate, pH 7.4, supplemented with 50 μg/ml propidium iodide and 10 μg/ml RNase-A. DNA contents of the cells were measured by fluorescence-activated cell sorter (FACS). […] Equally, the cell cycle profile can be assessed with this method.

UXF 1138 = experiment: In vitro activity against solid tumor cell lines (FACS analysis method a); format: cell-based; conditions: Homo sapiens, Uterus
Method: Human uterus cancer cell line UXF 1138 (Oncotest GmbH, Freiburg, Germany)
as §3, §4

BV-173 cells [3] = experiment: Western blot analysis in BV-173 cells; format: cell-based, human; conditions: for acetylation of histone H3: BV-173, 1 μM MARB1, 2 μM MARB2 or 2 mM VPA
Method: BV-173 cells (BCR-ABL positive leukemic cells) were used as control cells left (Ctl) or with 1 μM MARB1, 2 μM MARB2 or 2 mM VPA treated for 24 h. These concentrations were chosen to achieve equipotent effects on cells which was in preliminary tests (data not shown). Shown are acetylated tubulin-α, α-tubulin, acetylated histone H3, WT1, survivin and β-actin. The total amount of α-tubulin and β-actin were used as loading control. Mr, relative molecular weight in kilodaltons. The degradation of WT1 in patients treated with VPA cells bases on a loss of WT1 mRNA and the increased degradation of WT1 protein by induction of the E2 ubiquitin conjugase UbcH8.
as §5, §6, §1

MAXF MCF-7 = experiment: In vitro activity against solid tumor cell lines (FACS analysis method a); format: cell-based; conditions: Homo sapiens, MCF7, Breast
Method: (§7) Human breast cancer cell lines MAXF 401 and MAXF MCF-7 (Oncotest GmbH, Freiburg, Germany)
as §3, §4

MAXF 401 = experiment: as above; format: cell-based; conditions: Homo sapiens, MAXF401, Breast
Method: as §7, §3, §4

RKO cells = experiment: Western blot analysis in RKO colorectal cancer cells; format: cell-based, human
Method: FIG. 5. Various cancer cells were treated for 24 h as shown and tested by Western blot analysis.
(D) Inhibition of HDAC6 protects it from degradation by the addition of a pro-apoptotic agent (staurosporine, ST).
The total amount of vinculin serves as a loading control; Proof of tubulin acetylation serves as proof of the treatment accuracy. The loss of the caspase-3 corresponds to the induction of apoptosis (programmed cell death).
Human colon cancer cell lines RKO (ATCC Accession No: CRL-2577) and HCT-116 (DSMZ Accession No: ACC-581).
as §1

[4] = BV-173, 1 μM MARB1, 2 μM MARB2, 24 h

Cc1[nH]c2ccccc2c1CCNCc1ccc(/C=C/C(=O)NO)cc1 [LBH589, reference compound]
tubulin acetylation and degradation (HCT-116 cells): degradation of tubulin
acetylation of tubulin-α (HEL leukemic cells; compared to other inhibitors): decreased acetylation of tubulin-α

CN1CC(=O)N2Cc3c(c4ccccc4n3Cc3ccc(C(=O)NO)cc3)C(C2)C1=O (stereo not drawn) [MARB2, N-Hydroxy-4-((5-methyl-3,6-dioxo-4,5,6,7-tetrahydro-1H-2,7-methano[1,4]diazonino[6,7-b]indol-12(3H)-yl)methyl)benzamide]
IC50 (PRXF LNCaP): 4.8 µM
IC50 (PRXF PC-3M): 20.8 µM
IC50 (PRXF DU-145): 10.3 µM
tubulin acetylation and degradation (HCT-116 cells): starts the hyperacetylation of tubulin in colon carcinoma cells (RKO and HCT-116 cells) without destroying it
IC50 [1]: 16.4 µM
concentration with about the same potency in hyperacetylation of tubulin-α (HEL leukemic cells): ~2 µM
apoptotic and necrotic sub-G1 populations (BV-173 cells [2]): significantly increases
IC50 (UXF 1138): 5.49 µM
acetylation of tubulin-α (BV-173 cells [3]; [4]): hyperacetylation of tubulin-α
expression of survivin (BV-173 cells [3]; [4]): reduction of the expression of survivin
acetylation of histone H3 (BV-173 cells [3]; 24 h): Neither MARB1, nor MARB2 cause these alterations
BCR-ABL expression on the protein level (BV-173 cells [3]; BV-173, compound alone, 24 h): do not affect
BCR-ABL stabilization/degradation in combination with imatinib (BV-173 cells [3]; BV-173, with imatinib, 24 h): significantly inhibit the unwanted stabilization of BCR-ABL
IC50 (MAXF MCF-7): 7.69 µM
IC50 (MAXF 401): 13.7 µM
hyperacetylation of tubulin (RKO cells; 0.5 μM, 24 h): sufficient to induce hyperacetylation of tubulin
HDAC6 loss in staurosporin (ST)-treated cells (RKO cells; with staurosporine): protects ST-treated RKO cells

CCCC(CCC)C(=O)O [VPA, reference compound]
acetylation of histone H3 (BV-173 cells [3]; 24 h): induces hyperacetylation of histone H3

CN1CCc2c(c3ccccc3n2Cc2ccc(C(=O)NO)cc2)C1 [tubastatin A, reference compound]
concentration with about the same potency in hyperacetylation of tubulin-α (HEL leukemic cells): ~5 µM
